Results taken from PMC5564600 (Oncotarget, 2017).
Like-named read-outs stand apart in the source and are kept apart here.

Tests used:
Experiment in all cases: biochemical
Format in all cases: binding
panel of 442 kinases [1] = molecular target: T1, panel of 442 kinases (Homo sapiens, UniProt O14730); conditions: kinase RIOK3; for remaining activity at 1 µM: read-out: RIOK3 (% of control at 1 µM)
T1 construct: purchased Ambit Biosciences (scanMAXX KINOMEscan)
T1 sequence (O14730 1-519): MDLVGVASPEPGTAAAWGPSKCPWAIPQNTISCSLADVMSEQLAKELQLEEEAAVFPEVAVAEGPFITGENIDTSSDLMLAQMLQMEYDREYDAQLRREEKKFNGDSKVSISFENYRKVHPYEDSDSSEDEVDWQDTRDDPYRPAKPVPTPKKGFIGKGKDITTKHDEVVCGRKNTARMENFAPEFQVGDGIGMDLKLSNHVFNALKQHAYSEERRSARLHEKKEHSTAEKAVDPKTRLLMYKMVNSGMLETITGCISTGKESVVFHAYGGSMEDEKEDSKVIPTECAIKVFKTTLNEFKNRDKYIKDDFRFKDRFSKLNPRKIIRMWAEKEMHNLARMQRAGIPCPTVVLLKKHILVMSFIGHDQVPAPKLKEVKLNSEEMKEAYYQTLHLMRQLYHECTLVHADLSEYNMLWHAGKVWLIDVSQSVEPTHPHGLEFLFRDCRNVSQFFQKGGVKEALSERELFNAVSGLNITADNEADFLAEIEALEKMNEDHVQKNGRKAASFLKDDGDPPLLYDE

panel of 442 kinases [2] = molecular target: T2, panel of 442 kinases (Homo sapiens, UniProt P00519, T315I); conditions: for remaining activity at 1 µM: read-out: % of control at 1 µM; for remaining activity at 10 µM: read-out: % of control at 10 µM
T2 construct: purchased Ambit Biosciences (scanMAXX KINOMEscan)

panel of 442 kinases [3] = molecular target: T3, panel of 442 kinases (Homo sapiens, UniProt P10721, A829P); conditions: kinase KIT(A829P); for remaining activity at 1 µM: read-out: % of control at 1 µM
T3 construct: purchased Ambit Biosciences (scanMAXX KINOMEscan)
T3 sequence (P10721 26-976 A829P): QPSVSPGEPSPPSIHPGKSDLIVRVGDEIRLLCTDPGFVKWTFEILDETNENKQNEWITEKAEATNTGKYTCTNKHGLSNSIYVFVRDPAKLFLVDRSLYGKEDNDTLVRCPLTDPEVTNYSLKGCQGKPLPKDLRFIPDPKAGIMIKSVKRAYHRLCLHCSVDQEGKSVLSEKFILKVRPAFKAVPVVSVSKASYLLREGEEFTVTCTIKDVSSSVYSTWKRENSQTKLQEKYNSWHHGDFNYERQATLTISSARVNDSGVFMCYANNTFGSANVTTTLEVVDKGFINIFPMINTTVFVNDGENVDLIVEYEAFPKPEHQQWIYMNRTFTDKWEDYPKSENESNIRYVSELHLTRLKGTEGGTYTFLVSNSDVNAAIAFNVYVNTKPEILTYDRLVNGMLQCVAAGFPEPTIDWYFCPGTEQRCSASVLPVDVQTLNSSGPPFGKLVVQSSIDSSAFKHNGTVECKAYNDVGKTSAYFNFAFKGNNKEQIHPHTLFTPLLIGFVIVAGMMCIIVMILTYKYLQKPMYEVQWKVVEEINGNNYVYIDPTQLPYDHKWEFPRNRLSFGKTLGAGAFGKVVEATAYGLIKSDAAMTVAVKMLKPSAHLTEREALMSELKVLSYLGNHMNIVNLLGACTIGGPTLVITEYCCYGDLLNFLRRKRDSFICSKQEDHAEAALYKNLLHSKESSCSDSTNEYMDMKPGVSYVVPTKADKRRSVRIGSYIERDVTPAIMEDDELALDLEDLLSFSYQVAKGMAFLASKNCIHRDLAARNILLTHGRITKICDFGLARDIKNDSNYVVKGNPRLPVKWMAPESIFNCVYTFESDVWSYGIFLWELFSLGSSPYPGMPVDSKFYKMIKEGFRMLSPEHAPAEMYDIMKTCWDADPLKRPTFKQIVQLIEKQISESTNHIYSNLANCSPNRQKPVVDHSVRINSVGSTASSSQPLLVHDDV

panel of 442 kinases [4] = molecular target: T4, panel of 442 kinases (Homo sapiens, UniProt Q8TBX8); conditions: kinase PIP5K2C; for remaining activity at 1 µM: read-out: % of control at 1 µM
T4 construct: purchased Ambit Biosciences (scanMAXX KINOMEscan)
T4 sequence (Q8TBX8 1-421): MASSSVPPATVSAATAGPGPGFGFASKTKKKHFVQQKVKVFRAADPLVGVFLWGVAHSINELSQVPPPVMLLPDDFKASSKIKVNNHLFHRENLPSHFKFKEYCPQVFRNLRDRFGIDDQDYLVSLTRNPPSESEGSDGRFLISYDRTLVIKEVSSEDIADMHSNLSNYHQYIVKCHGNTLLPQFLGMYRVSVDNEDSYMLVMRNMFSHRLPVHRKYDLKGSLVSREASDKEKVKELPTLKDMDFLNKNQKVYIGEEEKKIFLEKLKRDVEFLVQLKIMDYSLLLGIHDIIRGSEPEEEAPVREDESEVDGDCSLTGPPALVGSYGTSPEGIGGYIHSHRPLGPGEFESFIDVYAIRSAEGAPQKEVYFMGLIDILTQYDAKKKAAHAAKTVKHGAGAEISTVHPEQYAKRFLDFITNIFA

panel of 442 kinases [5] = molecular target: T5, panel of 442 kinases (Homo sapiens, UniProt Q8TDX7); conditions: kinase NEK7; for remaining activity at 1 µM: read-out: % of control at 1 µM
T5 construct: purchased Ambit Biosciences (scanMAXX KINOMEscan)
T5 sequence (Q8TDX7 whole entry): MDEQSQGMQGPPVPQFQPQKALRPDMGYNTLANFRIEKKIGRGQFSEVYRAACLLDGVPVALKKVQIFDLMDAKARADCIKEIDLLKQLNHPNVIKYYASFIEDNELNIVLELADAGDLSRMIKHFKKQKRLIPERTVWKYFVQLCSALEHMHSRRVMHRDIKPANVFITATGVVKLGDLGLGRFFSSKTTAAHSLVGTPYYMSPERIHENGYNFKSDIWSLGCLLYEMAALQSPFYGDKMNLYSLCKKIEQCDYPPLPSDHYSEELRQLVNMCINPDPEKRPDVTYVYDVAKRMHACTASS

panel of 442 kinases [6] = molecular target: T6, panel of 442 kinases (Homo sapiens, UniProt Q96PY6); conditions: kinase NEK1; for remaining activity at 1 µM: read-out: % of control at 1 µM
T6 construct: purchased Ambit Biosciences (scanMAXX KINOMEscan)
T6 sequence (Q96PY6 1-1258): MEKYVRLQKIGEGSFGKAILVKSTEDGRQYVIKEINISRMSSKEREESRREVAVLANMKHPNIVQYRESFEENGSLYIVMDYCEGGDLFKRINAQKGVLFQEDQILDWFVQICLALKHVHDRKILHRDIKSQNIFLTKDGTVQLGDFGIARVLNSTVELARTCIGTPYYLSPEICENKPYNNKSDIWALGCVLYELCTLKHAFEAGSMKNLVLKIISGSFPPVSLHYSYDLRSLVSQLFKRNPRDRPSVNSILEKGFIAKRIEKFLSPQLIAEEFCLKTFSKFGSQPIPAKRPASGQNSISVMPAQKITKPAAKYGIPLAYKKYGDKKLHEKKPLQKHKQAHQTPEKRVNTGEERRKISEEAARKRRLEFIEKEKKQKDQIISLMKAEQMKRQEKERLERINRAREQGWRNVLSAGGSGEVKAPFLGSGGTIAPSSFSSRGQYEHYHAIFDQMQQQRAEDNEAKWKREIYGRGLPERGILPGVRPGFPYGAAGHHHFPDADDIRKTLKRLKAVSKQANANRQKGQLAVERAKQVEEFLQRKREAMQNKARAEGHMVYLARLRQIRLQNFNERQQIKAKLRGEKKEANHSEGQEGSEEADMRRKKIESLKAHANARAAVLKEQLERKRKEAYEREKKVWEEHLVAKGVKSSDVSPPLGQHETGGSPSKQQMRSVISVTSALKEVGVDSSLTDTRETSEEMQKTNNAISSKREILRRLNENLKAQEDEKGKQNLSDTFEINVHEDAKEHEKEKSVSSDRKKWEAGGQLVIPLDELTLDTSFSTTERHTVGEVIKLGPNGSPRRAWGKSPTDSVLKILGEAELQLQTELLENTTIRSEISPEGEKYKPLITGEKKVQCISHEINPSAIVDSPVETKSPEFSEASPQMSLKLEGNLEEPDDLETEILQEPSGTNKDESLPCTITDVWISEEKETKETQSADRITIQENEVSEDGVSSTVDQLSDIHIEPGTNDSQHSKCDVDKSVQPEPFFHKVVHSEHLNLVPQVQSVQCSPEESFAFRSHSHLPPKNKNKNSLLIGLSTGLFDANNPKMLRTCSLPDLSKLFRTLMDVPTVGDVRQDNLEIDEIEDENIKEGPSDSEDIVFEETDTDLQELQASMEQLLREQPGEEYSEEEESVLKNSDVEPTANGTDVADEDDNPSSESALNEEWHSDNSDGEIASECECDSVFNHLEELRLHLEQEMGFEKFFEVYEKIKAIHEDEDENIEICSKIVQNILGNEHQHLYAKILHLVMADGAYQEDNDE

panel of 442 kinases [7] = molecular target: T7, panel of 442 kinases (Homo sapiens, UniProt Q9H2X6); conditions: kinase HIPK2; for remaining activity at 1 µM: read-out: % of control at 1 µM
T7 construct: purchased Ambit Biosciences (scanMAXX KINOMEscan)
T7 sequence (Q9H2X6 whole entry): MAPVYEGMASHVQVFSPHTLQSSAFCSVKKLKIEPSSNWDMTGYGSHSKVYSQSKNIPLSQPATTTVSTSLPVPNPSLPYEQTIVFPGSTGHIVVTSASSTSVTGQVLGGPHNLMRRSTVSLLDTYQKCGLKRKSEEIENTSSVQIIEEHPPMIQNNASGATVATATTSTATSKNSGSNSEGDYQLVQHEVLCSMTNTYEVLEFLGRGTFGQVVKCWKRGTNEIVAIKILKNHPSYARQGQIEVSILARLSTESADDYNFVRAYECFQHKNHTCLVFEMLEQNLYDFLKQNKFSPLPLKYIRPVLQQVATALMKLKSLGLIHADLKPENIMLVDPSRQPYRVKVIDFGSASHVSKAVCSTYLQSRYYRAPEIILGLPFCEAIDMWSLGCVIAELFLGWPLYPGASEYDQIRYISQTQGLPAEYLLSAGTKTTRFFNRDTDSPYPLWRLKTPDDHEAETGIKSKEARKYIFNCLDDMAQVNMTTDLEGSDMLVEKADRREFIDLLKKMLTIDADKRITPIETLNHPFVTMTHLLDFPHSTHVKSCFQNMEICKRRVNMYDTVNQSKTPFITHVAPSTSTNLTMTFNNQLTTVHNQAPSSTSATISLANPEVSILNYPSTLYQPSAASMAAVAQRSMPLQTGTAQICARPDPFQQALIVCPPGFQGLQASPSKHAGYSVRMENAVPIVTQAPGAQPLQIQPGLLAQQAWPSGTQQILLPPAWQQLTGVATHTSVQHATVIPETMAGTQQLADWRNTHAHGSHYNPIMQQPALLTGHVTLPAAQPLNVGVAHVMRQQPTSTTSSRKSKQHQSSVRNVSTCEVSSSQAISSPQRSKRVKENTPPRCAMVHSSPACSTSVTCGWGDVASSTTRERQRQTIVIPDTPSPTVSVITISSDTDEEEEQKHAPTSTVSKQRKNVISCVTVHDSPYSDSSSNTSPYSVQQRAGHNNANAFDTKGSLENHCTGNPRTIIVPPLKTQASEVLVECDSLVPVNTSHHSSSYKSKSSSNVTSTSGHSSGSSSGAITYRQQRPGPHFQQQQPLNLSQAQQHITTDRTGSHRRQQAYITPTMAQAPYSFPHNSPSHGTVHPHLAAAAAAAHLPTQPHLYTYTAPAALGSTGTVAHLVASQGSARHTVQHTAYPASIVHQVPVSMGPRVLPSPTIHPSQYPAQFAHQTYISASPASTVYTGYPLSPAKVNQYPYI

[8] = 10 µM, read-out: % of control at 10 µM

| Compound | remaining activity at 1 µM (panel of 442 kinases [1]) | remaining activity at 10 µM (panel of 442 kinases [1]; 10 µM, read-out: RIOK3 (% of control at 10 µM)) | remaining activity at 1 µM (panel of 442 kinases [2]; ABL1(T315I)-nonphosphorylated) | remaining activity at 10 µM (panel of 442 kinases [2]; ABL1(T315I)-nonphosphorylated) | remaining activity at 1 µM (panel of 442 kinases [2]; ABL1(T315I)-phosphorylated) | remaining activity at 10 µM (panel of 442 kinases [2]; ABL1(T315I)-phosphorylated) | remaining activity at 1 µM (panel of 442 kinases [3]) | remaining activity at 10 µM (panel of 442 kinases [3]; [8]) | remaining activity at 1 µM (panel of 442 kinases [4]) | remaining activity at 10 µM (panel of 442 kinases [4]; [8]) | remaining activity at 1 µM (panel of 442 kinases [5]) | remaining activity at 10 µM (panel of 442 kinases [5]; [8]) | remaining activity at 1 µM (panel of 442 kinases [6]) | remaining activity at 10 µM (panel of 442 kinases [6]; [8]) | remaining activity at 1 µM (panel of 442 kinases [7]) | remaining activity at 10 µM (panel of 442 kinases [7]; [8]) |
| --- | --- | --- | --- | --- | --- | --- | --- | --- | --- | --- | --- | --- | --- | --- | --- | --- |
| Nc1cc(C(F)(F)F)c(-c2cc(N3CCOCC3)nc(N3CCOCC3)n2)cn1 [Buparlisib] | 95% | 95% | 94% | 78% | 73% | 100% | 100% | 98% | 71% | 46% | 100% | 94% | 100% | 100% | 100% | 100% |
| Cn1c(=O)n(-c2ccc(C(C)(C)C#N)cc2)c2c3cc(-c4cnc5ccccc5c4)ccc3ncc21 [Dactolisib, 2-methyl-2-[4-(3-methyl-2-oxo-8-quinolin-3-yl-2,3-dihydroimidazo[4,5-c]quinolin-1-yl)-phenyl] propionitrile] | 70% |  | 58% |  |  |  | 61% |  | 89% |  | 90% |  | 98% |  | 64% |  |
| COc1ncc(-c2ccc3nccc(-c4ccnnc4)c3c2)cc1NS(=O)(=O)c1ccc(F)cc1F [Omipalisib] | 95% |  | 98% |  | 81% |  | 100% |  | 56% |  | 100% |  | 87% |  | 91% |  |
| FC(F)c1nc2ccccc2n1-c1nc(N2CCOCC2)nc(N2CCOCC2)n1 [ZSTK474, 2-(difluoromethyl)-1-[4,6-di(4-morpholinyl)-1,3,5-triazin-2-yl]-1H-benzimidazole] | 71% |  | 50% |  | 100% |  | 90% |  | 100% |  | 68% |  | 100% |  | 86% |  |
